The values below come from ChEMBL document CHEMBL3784914, “Bioactive lignan constituents from the twigs of Sambucus williamsii” (Bioorg Med Chem Lett, 2016).

Data set [1] is described as follows: Anti-neuroinflammatory activity in LPS-activated mouse BV2 cells assessed as inhibition of NO production after 24 hrs by Griess assay. The data set is classed as functional, cell-based. Conditions: BV-2, 24 h. (In general: Nitrite, measured by Griess reagent, commonly stands in for NO production.)
Data set [2] deals with SK-MEL-2. Put plainly: Cytotoxicity against human SK-MEL-2 cells by SRB assay. It counts as functional, cell-based.
Data set [3] in a line: Cytotoxicity in rat C6 cells assessed as cell viability at 20 uM after 24 hrs by MTT assay. The data set is classed as cell-based. Conditions: read-out: Activity. On the technique in general: Formazan colour is commonly taken as a measure of viable cells.
Data set [4] relates to C6. Put plainly: Neuroprotective activity in rat C6 cells assessed as NGF secretion at 20 uM after 24 hrs by ELISA. It counts as functional. On the technique in general: An ELISA detects its analyte on a solid surface through an enzyme-linked reagent.
Data set [5] deals with XF498. The experiment in a line: Cytotoxicity against human XF498 cells by SRB assay. The data set is classed as functional, cell-based.
The subject of data set [6] is A549. The experiment in a line: Cytotoxicity against human A549 cells by SRB assay. It counts as functional, cell-based.
Data set [7] is described as follows: Cytotoxicity against human SKOV3 cells by SRB assay. It counts as functional, cell-based. Conditions: SK-OV-3.
Data set [8] in a line: Cytotoxicity against mouse BV2 cells assessed as cell viability at 20 uM by MTT assay. The data set is classed as cell-based, BV-2. Conditions: read-out: Activity.

Each structure is given as a SMILES string.

The term IC50 denotes the concentration that inhibits the measured activity by half.

In the case of `COc1cc([C@H]2OC[C@H]3[C@@H]2CO[C@@H]3c2cc(OC)c(O)c(OC)c2)ccc1O`, the IC50 is 45.6 µM in data set [1]; over 30 µM in data set [2]; over 30 µM in data set [5]; over 30 µM in data set [6]; over 30 µM in data set [7]. Moreover, in data set [3], the viability at 24 h, 20 µM worked out at 103%. Besides, the Activity in data set [4] amounted to 96.39%. The viability at 20 µM in data set [8] was 127%.
As to `COc1cc(C[C@H]2CO[C@H](c3ccc(O)c(OC)c3)[C@@]2(O)CO)ccc1O`, the IC50 in data set [1] was 215 µM; in data set [2], over 30 µM; in data set [5], over 30 µM; in data set [6] it was over 30 µM; in data set [7] it was over 30 µM. Further, in data set [3], the viability at 24 h, 20 µM is 103%. In addition, the Activity in data set [4] turned out to be 107.88%. The viability at 20 µM in data set [8] was determined as 151%.
`COc1cc(/C=C/C(=O)OCCCc2cc(OC)c3c(c2)[C@@H](CO)[C@H](c2cc(OC)c(O[C@@H](CO)[C@H](O)c4ccc(O)c(OC)c4)c(OC)c2)O3)ccc1O`: the concentration for half-maximal inhibition (IC50) in data set [1] is 6.82 µM; in data set [2], 11.1 µM; in data set [5] it was 18.1 µM; in data set [6], 13.2 µM; in data set [7], 15.7 µM. Further, the viability at 24 h, 20 µM in data set [3] was 92.3%. The Activity in data set [4] is 183.95%. Further, the viability at 20 µM in data set [8] turned out to be 157%.
As for `COc1cc(C[C@@H]2CO[C@H](c3ccc(O)c(OC)c3)[C@]2(O)CO)ccc1O`, the IC50 in data set [1] was over 500 µM; in data set [2], over 30 µM; in data set [5], over 30 µM; in data set [6] it was over 30 µM; in data set [7], over 30 µM. The viability at 24 h, 20 µM in data set [3] was 106%. Besides, the Activity in data set [4] was 107.97%. The viability at 20 µM in data set [8] amounted to 128%.
As for `COc1cc(/C=C\C(=O)OCCCc2cc(OC)c3c(c2)[C@@H](CO)[C@H](c2cc(OC)c(O[C@H](CO)[C@H](O)c4ccc(O)c(OC)c4)c(OC)c2)O3)ccc1O`, the IC50 in data set [1] is 14.7 µM; in data set [2], 11.4 µM; in data set [5], 19.6 µM; in data set [6], 15.8 µM; in data set [7], 17.6 µM. Besides, in data set [3], the viability at 24 h, 20 µM came to 97%. The Activity in data set [4] was found to be 155.96%. For the same compound, the viability at 20 µM in data set [8] worked out at 138%.
Take `COc1cc(/C=C/C(=O)OCCCc2cc(OC)c3c(c2)[C@@H](CO)[C@H](c2cc(OC)c(O[C@H](CO)[C@H](O)c4ccc(O)c(OC)c4)c(OC)c2)O3)ccc1O`: the IC50 in data set [1] is 7.04 µM; in data set [2], 14.1 µM; in data set [5], 18.4 µM; in data set [6], 16.4 µM; in data set [7], 17.5 µM. The viability at 24 h, 20 µM in data set [3] came out at 82.7%. In data set [4], the Activity is on record as 153.99%. Moreover, the viability at 20 µM in data set [8] was determined as 146%.
As for `COc1cc(C(O)[C@H]2CO[C@H](c3ccc(O)c(OC)c3)[C@H]2CO)ccc1O` (stereo not given in full), the IC50 was 129 µM in data set [1]; over 30 µM in data set [2]; over 30 µM in data set [5]; over 30 µM in data set [6]; over 30 µM in data set [7]. Besides, the viability at 24 h, 20 µM in data set [3] turned out to be 104%. Moreover, the Activity in data set [4] worked out at 101.55%. For the same compound, in data set [8], the viability at 20 µM was 114%.
As to `COc1cc([C@@H]2OC[C@@H]3[C@H]2CO[C@H]3c2ccc(O)c(OC)c2)ccc1O` [(+)-PINORESINOL], the IC50 is 34.2 µM in data set [1]; over 30 µM in data set [2]; over 30 µM in data set [5]; over 30 µM in data set [6]; over 30 µM in data set [7]. Also, the viability at 24 h, 20 µM in data set [3] stood at 105%. Besides, the Activity in data set [4] came to 106.93%. In addition, the viability at 20 µM in data set [8] is 148%.
Consider `COc1cc([C@@H]2Oc3c(OC)cc(CCCO)cc3[C@H]2CO)ccc1O` [DIHYDRODEHYDRODICONIFERYL ALCOHOL], for which the IC50 is 40 µM in data set [1]; over 30 µM in data set [2]; over 30 µM in data set [5]; over 30 µM in data set [6]; over 30 µM in data set [7]. Besides, the viability at 24 h, 20 µM in data set [3] was 105%. The Activity in data set [4] was found to be 97.14%. Further, the viability at 20 µM in data set [8] was found to be 129%.
`COc1cc([C@@H]2c3cc4c(cc3[C@@H](O[C@@H]3O[C@@H]5CO[C@@H](C)O[C@H]5[C@H](O)[C@H]3O)[C@H]3COC(=O)[C@H]23)OCO4)cc(OC)c1O` [ETOPOSIDE]: the IC50 in data set [7] came out at 0.84 µM.
Turning to `COc1cc(C[C@H]2CO[C@H](c3ccc(O)c(OC)c3)[C@H]2CO)ccc1O` [LARICIRESINOL], the IC50 in data set [1] is 72.6 µM; in data set [2], over 30 µM; in data set [5], over 30 µM; in data set [6] it was over 30 µM; in data set [7], over 30 µM. Moreover, in data set [3], the viability at 24 h, 20 µM was 101%. Besides, the Activity in data set [4] was 77.31%. In addition, the viability at 20 µM in data set [8] worked out at 147%.
`CCCCC/C=C/C(=O)CCc1ccc(O)c(OC)c1` [SHOGAOL]: the viability at 24 h, 20 µM in data set [3] stood at 105%. For the same compound, the Activity in data set [4] was determined as 151.75%.
In the case of `CNC(=N)NCCC[C@H](N)C(=O)O` [TILARGININE], the IC50 in data set [1] was 20.8 µM. Besides, the viability at 20 µM in data set [8] turned out to be 102%.
